These results are taken from patent US20100016221A1, “METHOD OF DEGRADING PROTEIN BY CHAPERONE-MEDIATED AUTOPHAGY” (RIKEN, priority 2008, published 2010).

Experiment [1] relates to polyQ inclusions in 150Q-nls Neuro2a cells (tNhtt-EGFP-150Q-nls). Briefly: ArrayScan quantification of polyQ inclusion formation in inducible 150Q-nls Neuro2a cells. The experiment is classed as cell-based, mouse. Conditions: 150Q-nls Neuro2a cells, constructs without mRFP, 48 hours after induction. The method, then: (§1) Mouse neuroblastoma (Neuro2a) cells were maintained in Dulbecco's modified Eagle's medium (Sigma) supplemented with 10% heat-inactivated fetal bovine serum (Sigma), 100 U/ml penicillin and 100 μg/ml streptomycin (Invitrogen) at 37° C. in an atmosphere containing 5% CO2 and 95% air. Establishment of stable Neuro2a cell lines with the ecdysone-inducible mammalian expression system (Invitrogen), that express tNhtt-EGFP-16Q (16Q Neuro2a cells), tNhtt-EGFP-150Q (150Q Neuro2a cells) and tNhtt-EGFP-150Q-nls (150Q-nls Neuro2a cells) has been described earlier (T. Nagai et al., supra, H. Doi et al., supra, E. A. Zemskov et al., J Neurochem. 87, 2 (2003)). Neuro2a cells were differentiated with 5mM dbcAMP (N^6, 2′-O-dibutyryladenosine-3′,5′-cyclic monophosphate sodium salt) (Nacalai Tesque) and induced to express tNhtt-polyQ with 2 μM ponasterone A (ponA; Invitrogen) for indicated times. Neuro2a/FRT/TR cell line was generated as described in the protocol for Flp-in/T-Rex system (Invitrogen). Neuro2a tNhtt-62Q-kikGR cell line was generated by transfecting Neuro2a/FRT/TR cells with the pFRT-HD62-KikGR and pOG44 (Invitrogen) constructs using Lipofectamine 2000 reagent and selected with 200 μg/ml hygromycin. The expression of the pFRT-tNhtt-62Q-KikGR was induced by 18 doxycycline treatment of the cells. For the photo-induced kikGR cleavage, cells were exposed to ˜400 nm wavelength for 5 minutes. […]
(§2) For the quantification of the inclusions, cells were grown in 24-well plates for indicated periods, fixed in 4% paraformaldehyde, washed and incubated with Hoechst 33258 at 1/1000 dilution in PBS. Cells were analyzed by ArrayScan® V^TI High Content Screening (HSC) Reader (Cellomics) using Target Activation BioApplication (TABA). TABA analyzes images acquired by a HSC Reader and provides measurements of the intracellular fluorescence intensity and localization on a cell-by-cell basis.
In each well, at least 10000 cells were counted and quantified for the presence of the inclusions. Nuclei stained with Hoechst 33285 provided the autofocus target and their count gave the exact number of the quantified cells. The screening itself consisted of two scans using Hoechst, FITC (for GFP) and TRITC (for RFP) fluorescence. Firstly, number of inclusions in transfected cells was calculated when fluorescent spots at size of at least 5 pixels (magnification 20× for cytoplasmic and 40× for nuclear aggregates) with average GFP intensity more than 1500 in the RFP background were counted. […] The percentage of the cells with aggregates was then calculated. When the constructs without mRFP were used for transfection, the procedure was same, except the RFP intensity was not measured. […] Data was generated from the quantification of more than 250,000 cells in each experimental set-up.

The next experiment deals with 150Q-nls Neuro2a cells. Briefly: Cell death assay (propidium iodide uptake) in 150Q-nls Neuro2a cells. The note with it: after 48 hours of induction. Format: cell-based, mouse. The method, then: as §1, with “(Invitrogen).” for “(Invitrogen). Neuro2a tNhtt-62Q-kikGR cell line was generated by transfecting Neuro2a/FRT/TR cells with the pFRT-HD62-KikGR and pOG44 (Invitrogen) constructs using Lipofectamine 2000 reagent and selected with 200 μg/ml hygromycin. The expression of the pFRT-tNhtt-62Q-KikGR was induced by 18 doxycycline treatment of the cells. For the photo-induced kikGR cleavage, cells were exposed to ˜400 nm wavelength for 5 minutes.”
For quantification of cell death, 5 μg/ml each of Hoechst 33342 and propidium iodide (PI) were added to differentiated and induced Neuro2a cells transiently transfected with either of the tested constructs (FIG. 6A). After 10 minutes at 37° C., the number of cells with PI uptake over the total number of cells was calculated by ArrayScan.

For a further experiment, the target named is T1, tNhtt-60Q (Homo sapiens, UniProt P42858, INS38QQQQQQQQQQQQQQQQQQQQQQQQQQQQQQQQQQQQQQQ).
T1 construct: N-terminal fragment of human huntington exon 1 (tNhtt) encoding 60 CAG repeats; expressed in transfected cells; host or cells: Neuro2a cells, transient co-transfection
T1 sequence (P42858 with tags, fused parts or gaps with the stated changes): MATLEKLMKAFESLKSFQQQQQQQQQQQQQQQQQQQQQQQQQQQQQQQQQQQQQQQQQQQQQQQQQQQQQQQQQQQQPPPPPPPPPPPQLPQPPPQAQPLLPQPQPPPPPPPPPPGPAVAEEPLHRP
Kind of experiment: Dot blot of purified intact lysosomes from Neuro2a cells co-transfected with tNhtt-60Q. Format: cell-based. Conditions: 16 hours. The method, then: We used a modification of the previously described method for the purification of lysosomes from CHO cells (E. A. Madden, B. Storrie, Anal. Biochem. 163, 2 (1987), E. A. Madden, J. B. Wirt, B. Storrie, Arch. Biochem. Biophys. 257, 1 (1987)). Neuro2a cells grown in 10 cm dishes were co-transfected with tNhtt-60Q and tested constructs, and after 16 hrs of incubation, cells were washed with ice cold PBS and homogenized by ten strokes. The homogenate was centrifuged at 1300 g for 5 min. The supernatant was decanted and placed on ice. The nuclear fraction was resuspended in 0.25 M sucrose and centrifuged at 1300 g for 5 min. This step was repeated 3 times and the supernatants from each wash were pooled to give a total post-nuclear supernatant (PNS). All the solutions used for the preparation of the discontinuous gradient were in 0.25 M sucrose. Gradients were prepared in cellulose nitrate tubes for Beckman SW40 rotor. Two ml of 35% Histodenz (Sigma) was overlaid with 2 ml of 17% Histodenz followed by 5 ml of 6% Percoll (Sigma). The tubes were then filled with 4.8 ml of PNS. […]
Cells were washed twice with ice-cold PBS, scraped, and resuspended in lysis buffer (0.5% Triton X-100 in PBS, 0.5 mM phenylmethylsulfonyl fluoride, Complete protease inhibitor mixture (Roche Applied Sciences)). […] Immunoreactive proteins were detected with enhanced chemiluminescence reagents (Amersham Biosciences). […]

For experiment [2], the system named is polyQ inclusions in 150Q Neuro2a cells (tNhtt-EGFP-150Q). Briefly: ArrayScan quantification of polyQ inclusion formation in inducible 150Q Neuro2a cells. Format: cell-based, mouse. Conditions: constructs without mRFP, induced and differentiated for 24 hours. The method, then: Mouse neuroblastoma (Neuro2a) cells were maintained in Dulbecco's modified Eagle's medium (Sigma) supplemented with 10% heat-inactivated fetal bovine serum (Sigma), 100 U/ml penicillin and 100 μg/ml streptomycin (Invitrogen) at 37° C. in an atmosphere containing 5% CO2 and 95% air. Establishment of stable Neuro2a cell lines with the ecdysone-inducible mammalian expression system (Invitrogen), that express tNhtt-EGFP-16Q (16Q Neuro2a cells), tNhtt-EGFP-150Q (150Q Neuro2a cells) and tNhtt-EGFP-150Q-nls (150Q-nls Neuro2a cells) has been described earlier (T. Nagai et al., supra, H. Doi et al., supra, E. A. Zemskov et al., J Neurochem. 87, 2 (2003)). Neuro2a cells were differentiated with 5mM dbcAMP (N^6, 2′-O-dibutyryladenosine-3′,5′-cyclic monophosphate sodium salt) (Nacalai Tesque) and induced to express tNhtt-polyQ with 2 μM ponasterone A (ponA; Invitrogen) for indicated times. Neuro2a/FRT/TR cell line was generated as described in the protocol for Flp-in/T-Rex system (Invitrogen). Neuro2a tNhtt-62Q-kikGR cell line was generated by transfecting Neuro2a/FRT/TR cells with the pFRT-HD62-KikGR and pOG44 (Invitrogen) constructs using Lipofectamine 2000 reagent and selected with 200 μg/ml hygromycin. The expression of the pFRT-tNhtt-62Q-KikGR was induced by 18 doxycycline treatment of the cells. For the photo-induced kikGR cleavage, cells were exposed to ˜400 nm wavelength for 5 minutes. Rat pheochromocytoma (PC12) cells were grown in the same conditions as Neuro2a cells, except for the serum composition of 5% of fetal bovine and 10% of horse serum (Sigma). All transient transfections were performed with Lipofectamine 2000 (Invitrogen) according to the manufacturer's instruction.
as §2
In each well, at least 10000 cells were counted and quantified for the presence of the inclusions. Nuclei stained with Hoechst 33285 provided the autofocus target and their count gave the exact number of the quantified cells. The screening itself consisted of two scans using Hoechst, FITC (for GFP) and TRITC (for RFP) fluorescence. Firstly, number of inclusions in transfected cells was calculated when fluorescent spots at size of at least 5 pixels (magnification 20× for cytoplasmic and 40× for nuclear aggregates) with average GFP intensity more than 1500 in the RFP background were counted. Secondly, nuclei were defined as the objects of interest and the cells with average intensity more than 50 within 3 pixels from the nucleus were selected for the analysis. The percentage of the cells with aggregates was then calculated. When the constructs without mRFP were used for transfection, the procedure was same, except the RFP intensity was not measured. Scanning was performed with triplicate or quadruplicate in each experimental condition. Data was generated from the quantification of more than 250,000 cells in each experimental set-up.

As for “HSC70bm-(QBP1)2 (MARVKKDQAEPLHRKFERQPPGSNWKWWPGIFDSNWKWWPGIFD) [HQ]”, the “reduction of aggregation compared to control counterparts (S and HS)” value in experiment [1] was found to be 45.2%. For the same substance, in the experiment on 150Q-nls Neuro2a cells, the “decrease of the percentage of PI-positive cells” value is reported as 47.2%. For the same substance, the “translocation of expanded polyQ toward the lysosomes” value with tNhtt-60Q is “efficient translocation”. Besides, in experiment [2], the “decrease of aggregation compared to control counterparts (S and HS)” value was found to be 58.5%.
